The target in data set [1] is T1, Human Erythrocyte Pyruvate Kinase (R-PK) (Homo sapiens, UniProt P30613).
T1 construct: The four units of human whole blood obtained from the Blood Bank; from tissue
Description: PK activity assay coupled with lactate dehydrogenase (NADH oxidation at 340 nm). In kind it is biochemical. As to conditions: for IC50: stock solutions in DMSO, dose-response of FIG. 6, read-out: IC50 (R-PK inhibition). The procedure:
PK activity was measured using the assay conditions that are recommended by the International Committee for Standardization in Hematology (ICSH). […] The positive cooperativity of substrate binding is clearly seen from the upward curvature in the Lineweaver plot. The experimental data were fit to the Hill equation. The derived parameters were K0.5S=2.37 mM and Hill coefficient (nH) of 1.41.
Phenlyalanine has long been known as an allosteric inhibitor of PK. […] It can be seen from FIG. 2 that an increase in the concentration of phenlyalanine results in a decreased affinity and a more pronounced sigmoidity of the substrate binding. When phenylalanine increases from 0 to 30 mM, the K0.5S increases by 2.5 folds and nH increases by 1.4 folds, respectively. To avoid fluctuations in measurement of PK parameters, all experiments reported herein and assays were performed using the same batch of preparation and under identical conditions.
PK activity is measured by coupling it with lactate dehydrogenase, which transforms pyruvate into lactate and oxidizes NADH into NAD. A reduction of oxidation of NADH is followed at 340 nm using the 96 well plate in a Spectramax spectrophotometer (Molecular Devices, Ca.).
The assay buffer (100 mM Tris pH 7.5) was prepared by dissolving TRIS 100 mM, KCl 100 mM, EDTA 0.5 mM, and 10 MM MgCl2 in deionized water. The pH of the solution was adjusted to 7.5 by adding a small amount of TRIS. The stock solution of NADH (20 mM), ADP 100 mM (neutralized), LDH 500 IU/ml and PEP 100 mM were prepared in the assay buffer. The following quantities of reagents were added to make 1 ml of assay solution.
The contents were mixed and incubated for five minutes at 37° C. Then, 50 μl of PEP was added and the absorbance changes were followed at 340 nm. The initial reaction velocity in AU/min was then calculated.
The control samples in each experiment were incubated under the same conditions as without any compound. In all cases, the experiments were begun after saturation with PEP. The percent inhibition of PK activity was calculated by subtracting the activity of the control sample from the activity in the presence of compound.
Compounds 4(1) through 4(12) thus obtained were tested.
The percent activity values presented in FIG. 5 represent an average of six independent experiments. All examined compounds were prepared as stock solutions in DMSO.
As a control for FIG. 5, the assay was performed with DMSO, but no compound.
Otherwise, the dose-response for R-PK in FIG. 5 in this Example 5 was performed as described in the above Examples.

Setting [2] is: compound concentration 0.5 mM, pH 7.5, 37° C., after saturation with PEP.
The mark [3] stands for this setting: compound concentration 2 mM, pH 7.5, 37° C., after saturation with PEP.
Where [4] appears, read: phenylalanine increases from 0 to 30 mM.

A value given as a limit tells only on which side of the number the result lay.

By IC50 is commonly meant the concentration that inhibits the measured activity by half. By inhibition is commonly meant how much of the control response was suppressed. A low value points to a weak effect. As usually defined, the melting point is the temperature, or range, at which the solid turns liquid.

T1 sequence (P30613 whole entry): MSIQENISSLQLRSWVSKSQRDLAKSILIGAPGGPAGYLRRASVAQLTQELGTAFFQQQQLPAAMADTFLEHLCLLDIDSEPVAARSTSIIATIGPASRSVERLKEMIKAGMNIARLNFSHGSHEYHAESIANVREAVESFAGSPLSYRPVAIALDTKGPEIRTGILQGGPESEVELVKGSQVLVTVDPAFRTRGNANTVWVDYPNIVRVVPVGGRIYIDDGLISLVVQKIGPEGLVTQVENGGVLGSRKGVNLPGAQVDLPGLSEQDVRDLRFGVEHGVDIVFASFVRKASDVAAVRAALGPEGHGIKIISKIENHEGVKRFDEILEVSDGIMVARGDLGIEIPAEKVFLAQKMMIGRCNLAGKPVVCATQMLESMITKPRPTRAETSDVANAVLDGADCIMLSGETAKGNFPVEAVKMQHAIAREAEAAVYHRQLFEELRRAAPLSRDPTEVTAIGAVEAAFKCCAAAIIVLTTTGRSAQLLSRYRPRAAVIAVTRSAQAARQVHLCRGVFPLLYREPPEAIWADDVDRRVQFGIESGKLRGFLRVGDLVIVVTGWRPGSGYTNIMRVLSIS

For “2-(9-Ethyl-9H-carbazol-3-ylvinylideneamino)-1-(4-nitrobenzoate) [(5)]”, the IC50 in data set [1] came to 17.4 µM.

Consider “2-phenylethyloxy-5-formylbenzoic acid [TB 32]”, for which the “% PK Inhibition” value was 48% in data set [1] (setting [2]); 77% in data set [1] (setting [3]); 80% in data set [1] (compound concentration 3 mM, pH 7.5, 37° C., after saturation with PEP).

Turning to “3-(2-{1-(3-Chlorophenyl)-1(3-hydroxyphenyl)-ureido]-ethyl}-4-oxo-4H-quinazolin-3-yl)-propionic acid [(4)]”, in data set [1], the IC50 was 16.1 µM.

As to `CCCCN(Cc1c2ccccc2c(Cl)c2ccccc12)C(=O)NCC(=O)OCC` [(1), [3-Butyl-3-(10-chloro-anthracen-9-ylmethyl)-ureido]-acetic acid ethyl ester], in data set [1], the concentration for half-maximal inhibition (IC50) is above 50 µM.

As for `Cc1cccc2nc3cccc(C(=O)Nc4ccccc4C(=O)O)c3nc12` [(2), 2-[(9-Methyl-phenazine-1-carbonyl)-amino]-benzoic acid], the IC50 in data set [1] came out at 8.9 µM.

For the compound `O=c1oc(Nc2ccc(Cl)cc2)nc2ccccc12` [(3), 2-(4-Chloro-phenylamino)-benzo[d][1,3]oxazin-4-one], the IC50 in data set [1] amounted to 20.9 µM.

As to `CCc1nc2ccccc2c(=O)n1CCc1cn(COC(=O)CCl)c2ccccc12` [(6), Chloroacetic acid 3-[2-(2-ethyl-4-oxo-4H-quinazolin-3-yl)ethyl]-indol-lylmethylester], in data set [1], the IC50 amounted to 12.1 µM.

On to `COC(=O)c1sc(-c2ccc(Cl)cc2)cc1NCc1ccccc1` [(7), 3-Benzylamino-5-(4-chlorophenyl)-4H-1λ^4-thiophene-2-carboxylic acid methyl ester], for which the half-maximal inhibitory concentration (IC50) in data set [1] stood at 16.9 µM.

As for `COC(=O)c1cc(Oc2ccc(C(=O)OC)cc2NC(=O)c2cc(Cl)cc(Cl)c2)cc(C(=O)OC)c1` [(8), 5-[2-(3,5-Dichlorobenzoylamino)-4-methoxycarbonyl-phenoxy]-isophtahlic acid dimethyl ester], the IC50 in data set [1] was 9 µM.

In the case of `COC(=O)c1cc(Oc2ccc(C(=O)OC)cc2NC(=O)NC2CCCCC2)cc(C(=O)OC)c1` [(9), 5-[2-(3-Cyclohexyl-ureido)-4-methoxycarbonyl-phenoxy]-isophtahlic acid dimethyl ester], in data set [1], the IC50 is 9.4 µM.

In the case of `N[C@@H](Cc1ccccc1)C(=O)O` [L-Phenylalanine, reference compound], in data set [1] (compound concentration 10 mM, pH 7.5, 37° C., after saturation with PEP), the inhibition at 10000 µM is 15%. In data set [1] (compound concentration 30 mM, pH 7.5, 37° C., after saturation with PEP), this compound returned an inhibition at 30000 µM of 72%. Also, in data set [1] (setting [4]), the “increase of Hill coefficient nH” value was 1.4 folds and the “increase of K0.5S (PEP)” value was 2.5 folds.

Compound `COc1ccc(OCCCCCC(=O)O)c(C=O)c1` [TB 88, 6-(2-formyl-4-methoxyphenoxy)hexanoic acid] showed an inhibition at 500 µM in data set [1] (setting [2]) of 16%. Besides, in data set [1] (compound concentration 2.5 mM, pH 7.5, 37° C., after saturation with PEP), 2500 µM produced 28% inhibition.

As for `Cc1ccc(OCCCCCC(=O)O)c(C=O)c1` [TB 154, 6-(2-formyl-4-methylphenoxy)hexanoic acid], the melting point fell in the range of 97 to 99 °C. Further, the inhibition at 500 µM in data set [1] (setting [2]) turned out to be 19%. At 2000 µM the inhibition in data set [1] (setting [3]) was 28%.

The compound `CCC(CCCCC(=O)O)Oc1ccc([N+](=O)[O-])cc1C=O` (stereo not shown) [TDD 57, 6-(2-formyl-4-nitrophenoxy)octanoic Acid] had an inhibition at 500 µM in data set [1] (setting [2]) of 36%.
